The text below walks through data of patent publication US20100048611A1, “TETRAHYDROPYRROLOPYRIDINE, TETRAHYDROPYRAZOLOPYRIDINE, TETRAHYDRO-IMIDAZOPYRIDINE AND TETRAHYDROTRIAZOLOPYRIDINE DERIVATIVES AND USE THEREOF” (Bayer Healthcare AG, priority 2006, published 2010).

The IC50 is the concentration needed to halve the response being measured. Read a high IC50 as a need for much substance.

The test concerns the target human factor Xa (FXa) (Homo sapiens, UniProt P00742). The test is described as follows: Determination of the factor Xa inhibition (chromogenic substrate). Format: biochemical. The note with it: chromogenic substrate Pefachrome FXa, 25° C., extinction at 405 nm. As to the method: a.1) Determination of the Factor Xa Inhibition:
The enzymatic activity of human factor Xa (FXa) is measured using the conversion of a chromogenic substrate specific for FXa. Factor Xa cleaves p-nitroaniline from the chromogenic substrate. The determinations are carried out in microtitre plates as follows:
The test substances, in various concentrations, are dissolved in DMSO and incubated for 10 minutes at 25° C. with human FXa ([…] dissolved in 50 mmol of Tris buffer [C,C,C-tris(hydroxymethyl)aminomethane], 150 mmol/l of NaCl, 0.1% BSA [bovine serum albumin], pH=8.3). Pure DMSO is used as control. The chromogenic substrate (150 μmol/l of Pefachrome® FXa from Pentapharm) is then added. After an incubation time of 20 minutes at 25° C., the extinction at 405 nm is determined.

Molecules are shown by their SMILES.

Chain of human factor Xa (FXa) (P00742 235-488 limits assumed): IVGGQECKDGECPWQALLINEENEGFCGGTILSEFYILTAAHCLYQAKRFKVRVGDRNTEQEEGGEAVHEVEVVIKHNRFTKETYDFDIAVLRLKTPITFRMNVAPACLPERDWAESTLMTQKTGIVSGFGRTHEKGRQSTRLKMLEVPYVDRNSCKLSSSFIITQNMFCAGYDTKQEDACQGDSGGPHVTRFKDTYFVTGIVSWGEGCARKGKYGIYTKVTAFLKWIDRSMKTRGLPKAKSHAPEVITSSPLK
Chain of human factor Xa (FXa) (P00742 41-179 partner limits assumed): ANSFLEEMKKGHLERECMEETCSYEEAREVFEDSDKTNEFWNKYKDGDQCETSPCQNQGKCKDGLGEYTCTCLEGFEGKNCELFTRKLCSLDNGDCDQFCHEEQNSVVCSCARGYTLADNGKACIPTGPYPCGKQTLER

Take `COc1ccc(-n2nc(C(N)=O)c3c2C(=O)N(c2ccc(N4CCOC4=N)cc2)CC3)cc1` [Example 1, 6-[4-(2-Imino-1,3-oxazolidin-3-yl)phenyl]-1-(4-methoxyphenyl)-7-oxo-4,5,6,7-tetrahydro-1H-pyrazolo[3,4-c]pyridine-3-carboxamide methanesulphonate]: the midpoint of inhibition, the IC50, lay at 0.8 nM.
